Assay results as given in the supplement of paper PMC13207355.
Where a name gives a salt, the structure may show the parent alone.

Assays:
Settings in all cases: exposure time: 72 h
E13 [1] = patient-derived glioblastoma stem cells of classical subtype; test: phenotypic distance (Euclidean, principal components) from DMSO controls (arbitrary units); higher = stronger morphological change
FT3469 [2] = normal neural stem cell line; test: as above
E31 [3] = patient-derived glioblastoma stem cells of proneural subtype; test: as above
E34 [4] = patient-derived glioblastoma stem cells of proneural subtype; test: as above
E28 [5] = patient-derived glioblastoma stem cells of classical subtype; test: as above
E57 [6] = patient-derived glioblastoma stem cells of mesenchymal subtype; test: as above
E21 [7] = patient-derived glioblastoma stem cells of mesenchymal subtype; test: as above
E13 [8] = test: surviving fraction (nuclei count normalised to DMSO); higher = more cells surviving (less toxic)
FT3469 [9] = test: as above
E31 [10] = test: as above
E34 [11] = test: as above
E28 [12] = test: as above
E57 [13] = test: as above
E21 [14] = test: as above
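Wherever phenotypic distance (Euclidean, principal components) from DMSO controls is given: cell Painting imaging in 384-well plates, CellProfiler features reduced to at least 20 principal components, Euclidean distance versus same-plate DMSO vehicle wells (0.1% v/v), median over six images per well.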
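Wherever surviving fraction (nuclei count normalised to DMSO) is given: nuclei counted by high-content imaging of Hoechst-stained cells in laminin-coated 384-well plates, relative to 0.1% DMSO vehicle wells, with staurosporine as cell-death control.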

Cc1nc2ccccn2c(=O)c1CCN1CCC(C(=O)c2ccc(F)cc2)CC1 [Pirenperone]
Settings | phenotypic distance | surviving fraction
E13 [1], 4.1 nM | 0.486 | –
E13 [1], 12.3 nM | 0.42 | –
E13 [1], 37 nM | 0.709 | –
E13 [1], 111.1 nM | 0.86 | –
E13 [1], 333.3 nM | 0.944 | –
E13 [1], 1000 nM | 0.709 | –
E13 [1], 3000 nM | 2.42 | –
E13 [8], 4.1 nM | – | 0.987
E13 [8], 12.3 nM | – | 1.07
E13 [8], 37 nM | – | 1.13
E13 [8], 111.1 nM | – | 1.14
E13 [8], 333.3 nM | – | 1.06
E13 [8], 1000 nM | – | 1.02
E13 [8], 3000 nM | – | 1.02
E21 [7], 4.1 nM | 1 | –
E21 [7], 12.3 nM | 0.656 | –
E21 [7], 37 nM | 0.874 | –
E21 [7], 111.1 nM | 0.825 | –
E21 [7], 333.3 nM | 0.769 | –
E21 [7], 1000 nM | 0.729 | –
E21 [7], 3000 nM | 0.884 | –
E21 [14], 4.1 nM | – | 1.08
E21 [14], 12.3 nM | – | 0.974
E21 [14], 37 nM | – | 1.12
E21 [14], 111.1 nM | – | 1.01
E21 [14], 333.3 nM | – | 1.11
E21 [14], 1000 nM | – | 1.12
E21 [14], 3000 nM | – | 0.984
E28 [5], 4.1 nM | 0.892 | –
E28 [5], 12.3 nM | 0.572 | –
E28 [5], 37 nM | 0.636 | –
E28 [5], 111.1 nM | 0.966 | –
E28 [5], 333.3 nM | 0.52 | –
E28 [5], 1000 nM | 0.489 | –
E28 [5], 3000 nM | 0.806 | –
E28 [12], 4.1 nM | – | 1.05
E28 [12], 12.3 nM | – | 0.977
E28 [12], 37 nM | – | 1.16
E28 [12], 111.1 nM | – | 0.995
E28 [12], 333.3 nM | – | 1.08
E28 [12], 1000 nM | – | 1.07
E28 [12], 3000 nM | – | 0.988
E31 [3], 4.1 nM | 0.618 | –
E31 [3], 12.3 nM | 0.402 | –
E31 [3], 37 nM | 0.608 | –
E31 [3], 111.1 nM | 0.551 | –
E31 [3], 333.3 nM | 0.266 | –
E31 [3], 1000 nM | 0.44 | –
E31 [3], 3000 nM | 0.761 | –
E31 [10], 4.1 nM | – | 1.02
E31 [10], 12.3 nM | – | 0.878
E31 [10], 37 nM | – | 0.945
E31 [10], 111.1 nM | – | 0.874
E31 [10], 333.3 nM | – | 0.886
E31 [10], 1000 nM | – | 0.857
E31 [10], 3000 nM | – | 0.912
E34 [4], 4.1 nM | 0.796 | –
E34 [4], 12.3 nM | 0.78 | –
E34 [4], 37 nM | 0.668 | –
E34 [4], 111.1 nM | 0.579 | –
E34 [4], 333.3 nM | 0.636 | –
E34 [4], 1000 nM | 0.719 | –
E34 [4], 3000 nM | 0.659 | –
E34 [11], 4.1 nM | – | 1.22
E34 [11], 12.3 nM | – | 1.22
E34 [11], 37 nM | – | 1.06
E34 [11], 111.1 nM | – | 0.912
E34 [11], 333.3 nM | – | 0.91
E34 [11], 1000 nM | – | 1.01
E34 [11], 3000 nM | – | 1.15
E57 [6], 4.1 nM | 0.572 | –
E57 [6], 12.3 nM | 0.766 | –
E57 [6], 37 nM | 2.84 | –
E57 [6], 111.1 nM | 0.668 | –
E57 [6], 333.3 nM | 0.553 | –
E57 [6], 1000 nM | 0.431 | –
E57 [6], 3000 nM | 1.17 | –
E57 [13], 4.1 nM | – | 1.07
E57 [13], 12.3 nM | – | 1.08
E57 [13], 37 nM | – | 1.08
E57 [13], 111.1 nM | – | 1.02
E57 [13], 333.3 nM | – | 1.03
E57 [13], 1000 nM | – | 1.03
E57 [13], 3000 nM | – | 0.881
FT3469 [2], 4.1 nM | 0.618 | –
FT3469 [2], 12.3 nM | 0.837 | –
FT3469 [2], 37 nM | 0.619 | –
FT3469 [2], 111.1 nM | 0.898 | –
FT3469 [2], 333.3 nM | 0.764 | –
FT3469 [2], 1000 nM | 0.995 | –
FT3469 [2], 3000 nM | 1.03 | –
FT3469 [9], 4.1 nM | – | 0.92
FT3469 [9], 12.3 nM | – | 0.976
FT3469 [9], 37 nM | – | 1.17
FT3469 [9], 111.1 nM | – | 1.11
FT3469 [9], 333.3 nM | – | 1.12
FT3469 [9], 1000 nM | – | 1.05
FT3469 [9], 3000 nM | – | 1.19

N=c1ccn2c(n1)O[C@H]1[C@H](O)[C@@H](CO)O[C@H]12 [Ancitabine hydrochloride]
Settings | phenotypic distance | surviving fraction
E13 [1], 4.1 nM | 1.7 | –
E13 [1], 12.3 nM | 1.23 | –
E13 [1], 37 nM | 1.32 | –
E13 [1], 111.1 nM | 1.29 | –
E13 [1], 333.3 nM | 2.15 | –
E13 [1], 1000 nM | 3.33 | –
E13 [1], 3000 nM | 5.43 | –
E13 [8], 4.1 nM | – | 0.857
E13 [8], 12.3 nM | – | 0.724
E13 [8], 37 nM | – | 0.884
E13 [8], 111.1 nM | – | 0.812
E13 [8], 333.3 nM | – | 0.716
E13 [8], 1000 nM | – | 0.67
E13 [8], 3000 nM | – | 0.49
E21 [7], 4.1 nM | 1.35 | –
E21 [7], 12.3 nM | 1.44 | –
E21 [7], 37 nM | 1.87 | –
E21 [7], 111.1 nM | 2.14 | –
E21 [7], 333.3 nM | 3.95 | –
E21 [7], 1000 nM | 5.57 | –
E21 [7], 3000 nM | 6.36 | –
E21 [14], 4.1 nM | – | 0.896
E21 [14], 12.3 nM | – | 0.889
E21 [14], 37 nM | – | 0.909
E21 [14], 111.1 nM | – | 0.832
E21 [14], 333.3 nM | – | 0.693
E21 [14], 1000 nM | – | 0.636
E21 [14], 3000 nM | – | 0.422
E28 [5], 4.1 nM | 2.22 | –
E28 [5], 12.3 nM | 2 | –
E28 [5], 37 nM | 1.29 | –
E28 [5], 111.1 nM | 1.66 | –
E28 [5], 333.3 nM | 1.88 | –
E28 [5], 1000 nM | 2.56 | –
E28 [5], 3000 nM | 2.87 | –
E28 [12], 4.1 nM | – | 0.837
E28 [12], 12.3 nM | – | 1.18
E28 [12], 37 nM | – | 0.826
E28 [12], 111.1 nM | – | 0.886
E28 [12], 333.3 nM | – | 0.687
E28 [12], 1000 nM | – | 0.653
E28 [12], 3000 nM | – | 0.482
E31 [3], 4.1 nM | 1.4 | –
E31 [3], 12.3 nM | 1.46 | –
E31 [3], 37 nM | 1.63 | –
E31 [3], 111.1 nM | 2.22 | –
E31 [3], 333.3 nM | 2.92 | –
E31 [3], 1000 nM | 3.39 | –
E31 [3], 3000 nM | 3.87 | –
E31 [10], 4.1 nM | – | 0.978
E31 [10], 12.3 nM | – | 0.749
E31 [10], 37 nM | – | 0.721
E31 [10], 111.1 nM | – | 0.594
E31 [10], 333.3 nM | – | 0.669
E31 [10], 1000 nM | – | 0.394
E31 [10], 3000 nM | – | 0.176
E34 [4], 4.1 nM | 1.44 | –
E34 [4], 12.3 nM | 0.954 | –
E34 [4], 37 nM | 1.24 | –
E34 [4], 111.1 nM | 1.69 | –
E34 [4], 333.3 nM | 2.92 | –
E34 [4], 1000 nM | 3.78 | –
E34 [4], 3000 nM | 5.02 | –
E34 [11], 4.1 nM | – | 0.976
E34 [11], 12.3 nM | – | 1.09
E34 [11], 37 nM | – | 0.963
E34 [11], 111.1 nM | – | 0.86
E34 [11], 333.3 nM | – | 0.71
E34 [11], 1000 nM | – | 0.689
E34 [11], 3000 nM | – | 0.593
E57 [6], 4.1 nM | 3.74 | –
E57 [6], 12.3 nM | 1.61 | –
E57 [6], 37 nM | 2.27 | –
E57 [6], 111.1 nM | 3.75 | –
E57 [6], 333.3 nM | 6.65 | –
E57 [6], 1000 nM | 7.84 | –
E57 [6], 3000 nM | 8.89 | –
E57 [13], 4.1 nM | – | 0.931
E57 [13], 12.3 nM | – | 0.805
E57 [13], 37 nM | – | 0.73
E57 [13], 111.1 nM | – | 0.655
E57 [13], 333.3 nM | – | 0.409
E57 [13], 1000 nM | – | 0.321
E57 [13], 3000 nM | – | 0.212
FT3469 [2], 4.1 nM | 1.34 | –
FT3469 [2], 12.3 nM | 0.713 | –
FT3469 [2], 37 nM | 1.46 | –
FT3469 [2], 111.1 nM | 1.24 | –
FT3469 [2], 333.3 nM | 3.06 | –
FT3469 [2], 1000 nM | 2.47 | –
FT3469 [2], 3000 nM | 2.06 | –
FT3469 [9], 4.1 nM | – | 0.699
FT3469 [9], 12.3 nM | – | 0.86
FT3469 [9], 37 nM | – | 0.964
FT3469 [9], 111.1 nM | – | 0.691
FT3469 [9], 333.3 nM | – | 0.668
FT3469 [9], 1000 nM | – | 0.679
FT3469 [9], 3000 nM | – | 0.682
